Data taken from article PMC10149367, “The ferroptosis inducing compounds RSL3 and ML162 are not direct inhibitors of GPX4 but of TXNRD1” (Redox Biology, 2023).

Columns and labels:
HT1080 cells = assay: Cytotoxicity assay, HT1080 cells; format: cell-based; details: HT1080, 24 h
Method: (§1) Cell culture—H1975 and A549 cells were cultured in RPMI-1640 medium (HyClone) with Earle's salts supplemented and penicillin/streptomycin (100 μg/ml), while HT1080 cells were cultured in MEM medium for Fig. 2 experiments. For all other cellular experiments, A549 cells were cultured in DMEM 4.5 g/L glucose medium (Gibco), and H1975 cells in RPMI-1640 ATCC Modification (Gibco). Cell cultures were maintained at 37 °C in 5% CO2 in a medium containing 10% fetal bovine serum (FBS) (GE Healthcare, A15-102 for Fig. 2 experiments and Sigma, F7524 for all others). Experiments were performed with or without supplementation with 100 nM sodium selenite as described.
(§2) Cytotoxicity assays— Cells were seeded in a 96-well plate at the density of 3 × 10^3 per well and allowed to adhere overnight. After which, cells were treated with various concentrations of compound for the indicated times, whereupon cell viability was determined using Cell Quanti-Blue™ Cell Viability Assay Kits (Nordic Diagnostica, CQBL-10K). Briefly, QUANTI-Blue Reagent (10 μL) was added to each well, incubated at 37 °C in 5% CO2 for 3 h, and then the plates were measured at 540nm/600 nm (Ex/Em) using the Tecan Microplate Reader (Morrisville NC, USA).

[1] = molecular target: T1, glutathione reductase (GR) (Homo sapiens, UniProt P00390); assay: GR counter assay; format: biochemical; details: Extended Data Fig. 2A right panel
T1 construct: made in house
T1 sequence (P00390 44-522): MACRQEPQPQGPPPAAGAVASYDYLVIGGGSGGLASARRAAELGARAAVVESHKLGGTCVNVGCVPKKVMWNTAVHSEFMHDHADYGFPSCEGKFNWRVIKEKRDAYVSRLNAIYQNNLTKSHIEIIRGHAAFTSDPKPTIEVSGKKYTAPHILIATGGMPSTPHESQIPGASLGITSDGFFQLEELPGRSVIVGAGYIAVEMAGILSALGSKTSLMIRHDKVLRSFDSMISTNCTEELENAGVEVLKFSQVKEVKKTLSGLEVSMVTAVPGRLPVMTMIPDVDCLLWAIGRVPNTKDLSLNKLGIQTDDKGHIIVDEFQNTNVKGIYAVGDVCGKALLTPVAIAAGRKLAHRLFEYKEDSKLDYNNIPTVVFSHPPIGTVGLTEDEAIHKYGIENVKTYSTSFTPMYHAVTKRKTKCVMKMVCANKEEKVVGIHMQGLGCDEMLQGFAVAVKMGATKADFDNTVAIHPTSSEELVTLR
Method: Recombinant human proteins—Recombinant human selenoprotein GPX and TXNRD isoenzymes as well as recombinant human GR were cloned, expressed, and purified as described previously [[26], [27], [28]].
GR counter assay was run by incubating 198 μL of GR and BSA in TES buffer with 2 μL compound for 30 min before dispensing 50 μL GSSG and NADPH in TES for final concentrations of 100 nM GR, 1 mM GSSG, 0.4 mM NADPH, 0.01% BSA. Absorbance at 340 was measured as above.

H1975 cells = assay: Cytotoxicity assay, H1975 cells; format: cell-based, human
Method: as §1, §2

SMILES: COC(=O)c1ccc([C@@H]2c3[nH]c4ccccc4c3C[C@@H](C(=O)OC)N2C(=O)CCl)cc1 [RSL3, (1S,3R)RSL3]
- Rescue from cytotoxicity by selenium supplementation (HT1080 cells): no rescue
- Inhibition of GR [1]: did not inhibit GPX1 or GR
- IC50 (H1975 cells; 24 h, media not supplemented with selenium): 0.15 µM
- Rescue from cytotoxicity by selenium supplementation (H1975 cells; H1975, 24 h): partial rescue
